Data reported in ChEMBL document CHEMBL1201862, “PubChem BioAssay data set” (2004).
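48-hour exposure; five concentrations; linearly interpolated endpoints. At the GI50, growth is halved.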 The source made the active and inactive calls. Rule as the data show it: active = GI50 up to about 1.1 µM and inactive = higher.

Experiments:
Assay in all cases: NCI anticancer screen, dose series, 48 h
IGROV-1 = tested on: IGROV-1
U-251 = tested on: U-251
HCC 2998 = tested on: HCC 2998
HCT-15 = tested on: HCT-15
COLO 205 = tested on: COLO 205
A549 = tested on: A549
OVCAR-8 = tested on: OVCAR-8
Malme-3M = tested on: Malme-3M
UO-31 = tested on: UO-31
786-0 = tested on: 786-0
SNB-75 = tested on: SNB-75
SNB-19 = tested on: SNB-19
MDA-MB-435 = tested on: MDA-MB-435
SK-MEL-2 = tested on: SK-MEL-2
OVCAR-5 = tested on: OVCAR-5
DU-145 = tested on: DU-145
SF-295 = tested on: SF-295
SK-MEL-28 = tested on: SK-MEL-28
RXF 393 = tested on: RXF 393
LOX IMVI = tested on: LOX IMVI

Structure (SMILES)	GI50 (IGROV-1)	GI50 (U-251)	GI50 (HCC 2998)	GI50 (HCT-15) [µM]	GI50 (COLO 205)	GI50 (A549)	GI50 (OVCAR-8)	GI50 (Malme-3M)	GI50 (UO-31)	GI50 (786-0)	GI50 (SNB-75)	GI50 (SNB-19)	GI50 (MDA-MB-435)	GI50 (SK-MEL-2)	GI50 (OVCAR-5)	GI50 (DU-145)	GI50 (SF-295)	GI50 (SK-MEL-28)	GI50 (RXF 393)	GI50 (LOX IMVI)
CC[C@@]1(O)C(=O)OCc2c1cc1n(c2=O)Cc2c-1nc1ccccc1c2/C=N\NC(=O)C(N)CS (some centres undefined)	6.7 µM (inactive)	0.281 µM (active)	9.46 µM (inactive)	3.83	41.4 µM (inactive)	2 µM (inactive)	1.09 µM (active)	9.59 µM (inactive)	0.989 µM (active)	0.51 µM (active)	0.573 µM (active)	0.571 µM (active)	5.36 µM (inactive)	46.3 µM (inactive)	17.3 µM (inactive)	0.435 µM (active)	0.501 µM (active)	5.5 µM (inactive)	1.8 µM (inactive)	0.454 µM (active)
O=C(OCc1ccccc1CN1CCOCC1)c1ccc(Br)cc1	47.8 µM (inactive)	88.7 µM (inactive)	46.5 µM (inactive)	57.1	74.6 µM (inactive)	45.6 µM (inactive)	85.1 µM (inactive)	23.3 µM (inactive)	95.7 µM (inactive)	> 100 µM (inactive)	> 100 µM (inactive)	> 100 µM (inactive)	31 µM (inactive)	36 µM (inactive)	73.1 µM (inactive)	> 100 µM (inactive)		92 µM (inactive)	> 100 µM (inactive)	55 µM (inactive)
CCOC(=O)c1ccc(C(=O)/C(C#N)=C2\CCCN2)[nH]1	> 100 µM (inactive)	> 100 µM (inactive)	> 100 µM (inactive)	> 100	> 100 µM (inactive)	50.5 µM (inactive)	> 100 µM (inactive)	> 100 µM (inactive)	> 100 µM (inactive)	> 100 µM (inactive)	34 µM (inactive)	> 100 µM (inactive)	28.8 µM (inactive)	97.1 µM (inactive)	> 100 µM (inactive)	> 100 µM (inactive)	> 100 µM (inactive)	> 100 µM (inactive)	14.8 µM (inactive)	> 100 µM (inactive)
O=C1c2c(ccc3c2CCCC3)CC12Cc1ccccc1C2	30.2 µM (inactive)	27.2 µM (inactive)	19.1 µM (inactive)	4.75	15.1 µM (inactive)	13.1 µM (inactive)	9.84 µM (inactive)	5.48 µM (inactive)	5.28 µM (inactive)	14.2 µM (inactive)	20.4 µM (inactive)	58.6 µM (inactive)	9.38 µM (inactive)	17.4 µM (inactive)	21.8 µM (inactive)	22.3 µM (inactive)	19 µM (inactive)	14.4 µM (inactive)	11 µM (inactive)	10.1 µM (inactive)
N#CCCN(CCCN(C(=O)Nc1ccccc1)c1ccccc1)C(=O)Nc1ccccc1	> 100 µM (inactive)	> 100 µM (inactive)	> 100 µM (inactive)	> 100	> 100 µM (inactive)	78.9 µM (inactive)	> 100 µM (inactive)	> 100 µM (inactive)	58.3 µM (inactive)	> 100 µM (inactive)	44.8 µM (inactive)	64.3 µM (inactive)	> 100 µM (inactive)	> 100 µM (inactive)	> 100 µM (inactive)	> 100 µM (inactive)	> 100 µM (inactive)	> 100 µM (inactive)	46.5 µM (inactive)	> 100 µM (inactive)
COc1ccc(S(=O)(=O)N/N=C/C(=O)O)cc1	427 µM (inactive)	499 µM (inactive)	607 µM (inactive)	542	1010 µM (inactive)	849 µM (inactive)	499 µM (inactive)	832 µM (inactive)	631 µM (inactive)	397 µM (inactive)	708 µM (inactive)	706 µM (inactive)	407 µM (inactive)	428 µM (inactive)	873 µM (inactive)	327 µM (inactive)	465 µM (inactive)	764 µM (inactive)	410 µM (inactive)	248 µM (inactive)
Nc1c2c(nc3ccccc13)-c1ccccc1NCCC2	33.3 µM (inactive)	32.2 µM (inactive)	13.9 µM (inactive)	35.6	16.8 µM (inactive)	47.4 µM (inactive)	42.2 µM (inactive)	18 µM (inactive)	25 µM (inactive)	16.7 µM (inactive)	43.4 µM (inactive)	53 µM (inactive)	22 µM (inactive)	18 µM (inactive)	35.6 µM (inactive)	59.7 µM (inactive)	17.7 µM (inactive)	18.2 µM (inactive)	16.1 µM (inactive)	16.8 µM (inactive)
COc1ccc(CNc2nc3cc(C(F)(F)F)ccc3nc2-c2ccccc2)cc1OC	66.7 µM (inactive)		22.6 µM (inactive)	28.2	35.1 µM (inactive)	26.9 µM (inactive)	54.6 µM (inactive)	45.6 µM (inactive)	23.7 µM (inactive)	33.4 µM (inactive)	37.3 µM (inactive)	> 100 µM (inactive)	25.5 µM (inactive)	68.9 µM (inactive)	71.1 µM (inactive)	87.5 µM (inactive)	29.4 µM (inactive)		22.8 µM (inactive)	24.7 µM (inactive)
CCCCC(C#N)(OP1(=O)OC(c2ccccc2)C(C)N1C)c1ccccc1 (centres undefined)	16.7 µM (inactive)	17.3 µM (inactive)	15.1 µM (inactive)	20.3	17.8 µM (inactive)	20.1 µM (inactive)	17.6 µM (inactive)	15.6 µM (inactive)	17.3 µM (inactive)	17.3 µM (inactive)	18.2 µM (inactive)	19.2 µM (inactive)	17.7 µM (inactive)	19.2 µM (inactive)	17.1 µM (inactive)	19.7 µM (inactive)	17.5 µM (inactive)	16.3 µM (inactive)	16.6 µM (inactive)	18.9 µM (inactive)
CC1OC2/C=C\CC(O)C(C)(C)C3CCC(C)C4(O3)O[B-]35OC(C(=O)OC1C2)C1(OC(CCC1C)C(C)(C)C(O)C/C=C\C1CC(OC(=O)C4O3)C(C)O1)O5 (centres undefined)	13.9 µM (inactive)	1.33 µM (inactive)	1.66 µM (inactive)	5.37	2.03 µM (inactive)	2.55 µM (inactive)	3.13 µM (inactive)	1.86 µM (inactive)	17.7 µM (inactive)	2.83 µM (inactive)	0.39 µM (active)	2.39 µM (inactive)	2.54 µM (inactive)	1.54 µM (inactive)	7.45 µM (inactive)	7.96 µM (inactive)	1.8 µM (inactive)	1.77 µM (inactive)	1.87 µM (inactive)	1.97 µM (inactive)
CCOc1cc(NC(C)=O)ccc1C(=O)NNS(=O)(=O)c1ccc(NC(C)=O)cc1	43.9 µM (inactive)		> 100 µM (inactive)	53.6	24.7 µM (inactive)	72.8 µM (inactive)	69.3 µM (inactive)	86.7 µM (inactive)	62.4 µM (inactive)	42.3 µM (inactive)	72.9 µM (inactive)	77.4 µM (inactive)	27.9 µM (inactive)	28.8 µM (inactive)	> 100 µM (inactive)	> 100 µM (inactive)	39.4 µM (inactive)	99.1 µM (inactive)	76.7 µM (inactive)	55.7 µM (inactive)
CC(C)(C)NC(=O)[C@H]1CC[C@H]2[C@@H]3CC=C4NC(=O)CC[C@]4(C)[C@H]3CC[C@]12C	> 100 µM (inactive)	> 100 µM (inactive)	> 100 µM (inactive)	> 100	> 100 µM (inactive)	> 100 µM (inactive)	70.3 µM (inactive)	> 100 µM (inactive)	> 100 µM (inactive)	90.2 µM (inactive)	22.6 µM (inactive)	> 100 µM (inactive)	> 100 µM (inactive)	> 100 µM (inactive)	> 100 µM (inactive)	> 100 µM (inactive)	> 100 µM (inactive)	> 100 µM (inactive)	> 100 µM (inactive)	> 100 µM (inactive)
COc1cc([C@@H]2c3cc4c(cc3[C@@H](/N=C/c3ccc(C(=O)O[C@H]5C[C@H]6OC[C@@]6(OC(C)=O)[C@H]6[C@H](OC(=O)c7ccccc7)[C@]7(O)C[C@H](OC(=O)[C@H](OC(=O)c8ccc(/C=N/[C@@H]9c%10cc%11c(cc%10[C@@H](c%10cc(OC)c(O)c(OC)c%10)[C@H]%10C(=O)OC[C@@H]%109)OCO%11)cc8)[C@@H](NC(=O)c8ccccc8)c8ccccc8)C(C)=C([C@@H](OC(C)=O)C(=O)[C@]56C)C7(C)C)cc3)C3COC(=O)C32)OCO4)cc(C)c1O (some centres undefined)	14.7 µM (inactive)	13.3 µM (inactive)	> 50 µM (inactive)	19.2	19.6 µM (inactive)	13.7 µM (inactive)	17.9 µM (inactive)	> 24 µM (inactive)		7.55 µM (inactive)	4.25 µM (inactive)	17.5 µM (inactive)	2.33 µM (inactive)	13.7 µM (inactive)	> 15.5 µM (inactive)	24.5 µM (inactive)	5.07 µM (inactive)	> 18.1 µM (inactive)	2.96 µM (inactive)	22.9 µM (inactive)
CCN(CC)c1nc(=O)c(C(=O)C(C)(C)C)c(C(C)(C)C)o1	> 100 µM (inactive)	> 100 µM (inactive)	> 100 µM (inactive)	> 100	> 100 µM (inactive)	> 100 µM (inactive)	> 100 µM (inactive)	> 100 µM (inactive)		> 100 µM (inactive)	> 100 µM (inactive)	98.4 µM (inactive)	> 100 µM (inactive)	> 100 µM (inactive)	> 100 µM (inactive)	> 100 µM (inactive)	> 100 µM (inactive)	> 100 µM (inactive)	> 100 µM (inactive)	> 100 µM (inactive)
